Assay results published in ChEMBL document CHEMBL4602621, “Optimization of cyclic sulfamide derivatives as 11β-hydroxysteroid dehydrogenase 1 inhibitors for the potential treatment of ischemic brain injury” (Bioorg Med Chem Lett, 2020).
Calls of active or inactive are those of the source. No cut-off for these calls is given here.

Assays:
[1] = biological target: 11-beta-hydroxysteroid dehydrogenase 1 (Mus musculus) (UniProt P50172); assay: In vivo inhibition of 11 beta-HSD1 in brain of mouse at 30 mg/kg, po relative to control; assay type: functional, organism-based
Chain of 11-beta-hydroxysteroid dehydrogenase 1 (Mus musculus) (P50172 whole entry, looked up): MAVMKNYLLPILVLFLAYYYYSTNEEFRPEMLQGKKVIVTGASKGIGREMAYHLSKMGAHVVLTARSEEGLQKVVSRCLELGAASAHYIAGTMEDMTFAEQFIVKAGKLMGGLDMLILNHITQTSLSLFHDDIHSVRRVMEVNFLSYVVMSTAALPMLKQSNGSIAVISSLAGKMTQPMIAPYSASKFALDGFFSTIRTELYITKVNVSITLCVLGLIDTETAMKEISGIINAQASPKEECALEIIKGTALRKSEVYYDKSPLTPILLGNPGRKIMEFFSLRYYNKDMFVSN

[2] = biological target: 11-beta-hydroxysteroid dehydrogenase 1 (Mus musculus, UniProt P50172); assay: Inhibition of mouse 11beta-HSD1 expressed in CHOK1 cells using XL665-labeled cortisol as substrate measured after 24 hrs by HTRF assay; assay type: cell-based, CHO-K1
Chain of 11-beta-hydroxysteroid dehydrogenase 1 (Mus musculus, UniProt P50172) (P50172 whole entry): as the sequence (P50172 whole entry, looked up) above

[3] = biological target: 11-beta-hydroxysteroid dehydrogenase 1 (Homo sapiens, UniProt P28845); assay: Inhibition of human 11beta-HSD1 expressed in CHOK1 cells using XL665-labeled cortisol as substrate measured after 24 hrs by HTRF assay; assay type: cell-based, CHO-K1
Chain of 11-beta-hydroxysteroid dehydrogenase 1 (Homo sapiens, UniProt P28845) (P28845 whole entry): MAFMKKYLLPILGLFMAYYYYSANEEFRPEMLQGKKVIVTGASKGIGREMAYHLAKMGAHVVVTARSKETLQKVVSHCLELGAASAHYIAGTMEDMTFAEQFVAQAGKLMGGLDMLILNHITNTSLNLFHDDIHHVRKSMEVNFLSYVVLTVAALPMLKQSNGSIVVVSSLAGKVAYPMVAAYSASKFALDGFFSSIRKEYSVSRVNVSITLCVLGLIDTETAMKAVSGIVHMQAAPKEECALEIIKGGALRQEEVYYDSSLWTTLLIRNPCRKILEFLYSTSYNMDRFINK

[4] = Drug level in plasma of mouse at 10 mg/kg, ip administered as single dose measured at 3 hrs; assay type: ADME, organism-based
[5] = test system: Mus musculus; assay: (§1) Neuroprotective activity in mouse model of middle cerebral artery occlusion-induced ischemia-reperfusion injury assessed as cerebral infarct volume at 10 mg/kg, ip administered twice at 1 to 5 hrs post induction of ischemia followed by 24 hrs of reperfusion by TTC staining based assay (reference value: 90.3 +/- 6 mm3); assay type: functional
[6] = biological target: 11-beta-hydroxysteroid dehydrogenase 1 (Mus musculus) (UniProt P50172); assay: Ex vivo inhibition of 11 beta-HSD1 in brain of iv dosed mouse by measuring cortisol amount after 1 hr by ELISA; assay type: functional, organism-based
[7] = biological target: 11-beta-hydroxysteroid dehydrogenase 1 (Mus musculus) (UniProt P50172); assay: In vivo inhibition of 11 beta-HSD1 in brain of mouse at 20 mg/kg, po relative to control; assay type: functional, organism-based
[8] = test system: Mus musculus; assay: as §1, with “30” for “10”; assay type: functional
[9] = Ratio of drug concentration in brain to plasma of mouse at 10 mg/kg, ip administered as single dose measured at 3 hrs; assay type: ADME, organism-based; details: read-out: BPR
[10] = Drug level in brain of mouse at 10 mg/kg, ip administered as single dose measured at 0.5 hrs; assay type: ADME, organism-based; details: read-out: Drug uptake
[11] = Drug level in plasma of mouse at 10 mg/kg, ip administered as single dose measured at 0.5 hrs; assay type: ADME, organism-based
[12] = Ratio of drug concentration in brain to plasma of mouse at 10 mg/kg, ip administered as single dose measured at 0.5 hrs; assay type: ADME, organism-based; details: read-out: BPR
[13] = test system: Mus musculus; assay: Neuroprotective activity in mouse model of middle cerebral artery occlusion-induced ischemia-reperfusion injury assessed as reduction in cerebral infarct area at 10 to 30 mg/kg, ip administered twice at 1 to 5 hrs post induction of ischemia followed by 24 hrs of reperfusion by TTC staining based assay; assay type: functional, organism-based
[14] = Drug level in brain of mouse at 10 mg/kg, ip administered as single dose measured at 3 hrs; assay type: ADME, organism-based; details: read-out: Drug uptake

Row | Compound | IC50 [2] [nM] | inhibition [7] [%] | also measured
1 | CC1CN(CC(=O)NC2C3CC4CC2CC(C(N)=O)(C4)C3)S(=O)(=O)N(c2c(Cl)cc(Cl)cc2Cl)C1 (stereo not given) | 2 | – | inhibition [1]: 66%
2 | CCC1CN(CC(=O)NC2C3CC4CC2CC(C(N)=O)(C4)C3)S(=O)(=O)N(c2c(Cl)cc(C(F)(F)F)cc2Cl)C1 (stereo not given) | 695 | – | –
3 | CC1CN(CC(=O)NC2C3CC4CC2CC(C(N)=O)(C4)C3)S(=O)(=O)N(c2ccc(C(F)(F)F)cn2)C1 (stereo not given) | 940 | – | –
4 | CC1CN(CC(=O)NC2C3CC4CC2CC(C(N)=O)(C4)C3)S(=O)(=O)N(c2c(Cl)cc(-c3ccccc3)cc2Cl)C1 (stereo not given) | 174 | – | –
5 | CC1CN(CC(=O)NC2C3CC4CC2CC(C(N)=O)(C4)C3)S(=O)(=O)N(c2c(Cl)cc(C(F)(F)F)cc2Cl)C1 (stereo not given) | 1 | 82 | IC50 [3]: 1 nM; concentration at 3 h [4]: 1310 ng/mL; Activity [5]: 66.2 mm3; inhibition [6]: Dose-dependent effect; Activity [8]: 59 mm3; Kp at 3 h [9]: 0.53; concentration at 0.5 h [10]: 1780 ng/mL; concentration at 0.5 h [11]: 4770 ng/mL; Kp at 0.5 h [12]: 0.38; Activity [13]: Active; concentration at 3 h [14]: 670 ng/mL
6 | CC1CN(CC(=O)NC2C3CC4CC2CC(C(N)=O)(C4)C3)S(=O)(=O)N(c2c(Cl)cc(-c3ccco3)cc2Cl)C1 (stereo not given) | 68 | – | –
7 | CC1CN(CC(=O)NC2C3CC4CC2CC(C(N)=O)(C4)C3)S(=O)(=O)N(c2c(Cl)cc(Br)cc2Cl)C1 (stereo not given) | – | 41.1 | –
8 | CC(C)C1CN(CC(=O)NC2C3CC4CC2CC(C(N)=O)(C4)C3)S(=O)(=O)N(c2c(Cl)cc(C(F)(F)F)cc2Cl)C1 (stereo not given) | 2800 | – | –
9 | Cc1cc(Cl)c(N2CC(C)CN(CC(=O)NC3C4CC5CC3CC(C(N)=O)(C5)C4)S2(=O)=O)c(Cl)c1 (stereo not given) | 3.7 | 69 | –
10 | CC1CN(CC(=O)NC2C3CC4CC2CC(C(N)=O)(C4)C3)S(=O)(=O)N(c2ccccn2)C1 (stereo not given) | 1210 | – | –
11 | NC(=O)C12CC3CC(C1)C(NC(=O)CN1CCCN(c4c(Cl)cc(C(F)(F)F)cc4Cl)S1(=O)=O)C(C3)C2 (stereo not given) | – | 45.8 | –
